Assay results as given in patent publication US9428815B2, “HIV-1 reverse transcriptase codon deletion and its use in the management and treatment of HIV infections” (Emory University, priority 2007, dated 2016).

Legend:
[1] = tested on: HIVs68Δ-23 (S68del virus isolated at week 23); experiment: 3H-TTP RT incorporation assay, drug susceptibility of in vitro-selected S68del virus in human PBM cells; format: cell-based, HIV-1; settings: for EC50 / EC90: Human immunodeficiency virus 1, PBMC, HIVs68Δ-23 in human PBM cells, averages of 2-6 independent experiments; for resistance of S68del (in words): S68del mutant HIV, summary statement; for HIVs68Δ-23 susceptibility (in words): NNRTI / PI
Experimental: Peripheral blood mononuclear (PBM) cells were separated by ficoll-hypaque (Histopaque 1077: Sigma) density gradient centrifugation from Buffy coats obtained from the American Red Cross (Atlanta, Ga.). Buffy coats were derived from healthy seronegative donors. Cells were activated with 3 μg/ml phytohaemagglutinin A (Sigma-Aldrich, St. Louis, Mo.) in 500 ml of RPMI-1640 (Mediatech Inc., Herndon, Va.) containing 100 ml heat-inactivated fetal bovine serum (Hyclone), 83.3 IU/ml penicillin, 83.3 μg/ml streptomycin, 1.6 mM L-glutamine (Mediatech Inc., Herndon, Va.), for 2-3 days prior to use.
Drug resistance of the S68del virus isolated at week 23 (HIVs68Δ-23) was measured with the 3H-TTP RT incorporation assay in human PBM cells (Schinazi, et al., Antimicrob. Agents Chemother. 1990; 34:1061-1067; Stuyver et al., Antimicrob. Agents Chemother. 2002; 46:3854-60). HIVs68Δ-23 was population sequenced to ensure the dominant population was the deletion at codon 68. […] The susceptibility of the S68del virus to several nucleoside reverse transcriptase inhibitors (NRTI), a non-nucleoside reverse transcriptase inhibitor (NNRTI) and a protease inhibitor (PI) was tested. Fold increases were measured relative to HIVLAI (Table 4, FIGS. 2 and 3). Data are the averages of 2-6 independent experiments.

[2] = tested on: S68delpNL4-3; experiment: microbe, parasite or virus in culture; format: cell-based, HIV-1
Source text: An intermediate vector with a 4 kb fragment of pNL4-3 ([…]) containing the RT coding region was cloned into the pCR2.1 vector (Invitrogen). […] The HIV-1 fragment from the intermediate vector was digested with Spe I/Age I and subcloned into the full-length pNL4-3 vector. The S68del pNL4-3-based infectious clone was then transfected into HEK293T cells and supernatant was collected after 4 days. The supernatant obtained from HEK293T was used to infect fresh PBM cells, after which the HIV-1 virus pool was passaged to establish an infective pool.
Four concentrations were tested in duplicate for each data point.

[3] = tested on: pNL4-3; experiment: Quantitative HIV-1 real-time PCR assay in human PBM cells, pNL4-3 virus; format: cell-based; settings: Human immunodeficiency virus 1, PBMC, pNL4-3 in human PBM cells
Source text: The real-time PCR assay for quantifying virus levels in PBM cells serves as a more sensitive method for measuring drug resistance of S68del HIV-1 than other standard methods. SK38 Primer: ATAATCCACCTATCCCAGTAGGAGAAAT (SEQ ID NO: 1) and SK39 Primer: TTTGGTCCTTGTCTTATGTCCAGAATGC (SEQ ID NO: 2) were used in the real-time PCR assay. The presence of amplified product was detected with the SK19 probe: ATCCTGGGATTAAATAAAATAGTAAGAATGTATAG (SEQ ID NO: 3). […] Four concentrations were tested in duplicate for each data point.

[4] = molecular target: T1, RT from virally-derived S68del (Human immunodeficiency virus type 1 group M subtype B, UniProt P03367, DEL667-667); experiment: Heteropolymeric-DNA colorimetric RT assay with 3.2 mM ATP, particle-derived S68del RT; format: biochemical, HIV-1
T1 construct: The resistance of RT derived from S68del and M184V particles; made in house; host or cells: crude virus pellet; the virus was passaged in human PBM cells
Source text: (§1) The principle and performance of the non-radioactive RT assay has been described (Lennerstrand et al., Antimicrob. Agents Chemother. 2007; 51:2078-2084). Separate kit components, such as covalently-linked DNA microtiter plates and tracer solution (alkaline phosphate (AP)-conjugated anti-BrdU antibody) were obtained from Cavidi Tech, Uppsala, Sweden. In brief, the 96-well microtiter plate used consisted of an 18 base heteropolymeric DNA primer covalently bound to the well. In the RT assay, the DNA primer is bound to a 50-base DNA template at 50 ng/well (190 nM) with a 5′-A12-3′ tail with a 5′-(GTCA)5-3′ repeat (Integrated DNA Technologies, USA). The RT assay reaction mixture (total volume 150 μl/well) contained: Hepes 50 mM, pH 7.3; MgCl2 10 mM; Triton X-100 0.5%; bovine serum albumin 0.1 mg/ml; dATP, dGTP, dCTP and 5-bromo-2′-deoxyuridine-5′-triphosphate (BrdUTP) at 1.0 μM each (where BrdUTP replaces TTP) (Sigma). To obtain ATP primer unblocking reaction in the assay, the ATP (Amersham/GE Health Care) was set to physiological concentration (3.2 mM). However, the ATP was only used in the assay with virus pellets as sample, not merely for primer unblocking reaction but to protect degradation of substrate in the crude sample. Furthermore, the dNTP level including BrdUTP was increased from 1 μM to 4 μM for the assay with the virus pellet samples. Subsequently, in the assay with recombinant purified RT enzyme, no ATP besides 1 μM dNTP was used.
(§2) The reaction was started with the addition of RT either as recombinant or crude virus pellet form in a similar activity range as previous published (Lennerstrand et al., Antimicrob. Agents Chemother. 2007; 51:2078-2084). The RT reaction mixture was incubated at 33° C. for 180 min and terminated by NaOH (to dehybridize the template) and water washing of the plates.

[5] = molecular target: T2, Wild type Reverse Transcriptase (Human immunodeficiency virus type 1 group M subtype B, UniProt P12497); experiment: Heteropolymeric DNA polymerase RT assay in the absence of ATP, wild type RT; format: biochemical, HIV-1
T2 construct: The level of resistance to NRTI-TP by the S68del mutants compared to wild type RT
Experimental: The level of resistance to NRTI-TP by the S68del mutants compared to wild type RT was determined as IC50 values of RT activity in the absence of ATP (Table 6). […] The RT activity was linear during the assay time within the substrate range used, and thus steady state kinetics were assumed.

[6] = tested on: Recombinant S68del Reverse Transcriptase; experiment: Heteropolymeric DNA polymerase RT assay in the absence of ATP, recombinant S68del RT; format: biochemical, HIV-1; settings: Recombinant S68del RT IC50 divided by wild type IC50
Experimental: (§3) Nucleic acids were separated by gel electrophoresis in a TAE gel and extracted from bands using the Qiagen gel extraction kit. The 4.2 kb band from pNL4-3 containing the HIV-RT encoding sequences was ligated into the linearized pCR2.1, making the construct MC002. Site directed mutagenesis was performed on the MC002 plasmid. Primers used had the S68 codon AGT deleted, thus introducing the S68 deletion into the pNL4-3 RT background.
(§4) To ligate the RT of pNL4-3 comprising the deletion at S68 codon 68 into protein expression vector […] (Invitrogen), MC002 was amplified using forward primer 5′-[…]-3′ (SEQ ID NO: 10) and reverse primer 5′-[…] […]-3′ (SEQ ID NO: 11). The PCR product and pQE60 were digested with Bgl II and Nco I. The digested products were separated by gel electrophoresis nucleic acids in excised gel bands extracted using the Qiagen gel extraction kit. The amplified PCR product comprising the RT of pNL4-3 was ligated into the linearized pQE60. The ligation mix was transformed into chemically competent bacteria (Alpha-select). Plasmid DNA from selected transformants was extracted using a mini-prep kit (Qiagen). Plasmid DNA was sequenced in both directions to confirm the ligation.
as §1, §2

[7] = molecular target: T3, Recombinant S68del Reverse Transcriptase (Human immunodeficiency virus type 1 group M subtype B, UniProt P12497, DEL655-655); experiment: as above; format: biochemical, HIV-1
T3 construct: The amplified PCR product comprising the RT of pNL4-3 was ligated into the linearized pQE60; inferred from the pQE60 vector and the in-frame BglII site of the reverse primer without a stop codon) (C); made in house; host or cells: bacteria
Experimental: as §3, §4, §1, §2

[8] = Human immunodeficiency virus 1, PBMC, S68del in pNL4-3, human PBM cells, real-time PCR

Nc1nc(N)c2ncn([C@H]3CO[C@@H](CO)O3)c2n1 [DAPD, (−)-beta-D-2,6-diaminopurine dioxolane] was tested, and the “FI EC50 (fold increase in 50% effective concentration)” value ([1]; HIVs68Δ-23 relative to HIVLAI) was 38.2, the “FI EC90 (fold increase in 90% effective concentration)” value ([1]; HIVs68Δ-23 relative to HIVLAI) was 32.4 and the EC50 [1] was 7900 nM. The EC90 [1] was 34500 nM.
For Nc1ccn([C@H]2CC[C@@H](CO)O2)c(=O)n1 [DDC, 2′,3′-dideoxycytidine], the EC50 [1] was 220 nM, the EC90 [1] was 930 nM and the “resistance of S68del (in words)” value [1] was “does not show increased resistance”.
With OC[C@@H]1CC[C@H](n2cnc3c(O)ncnc32)O1 [DDI, 2′,3′-dideoxyinosine] the EC50 [1] was 630 nM, the EC90 [1] was 4500 nM and the “resistance of S68del (in words)” value [1] was “does not show increased resistance”.
With Nc1nc(=O)n([C@H]2C=C[C@@H](CO)O2)cc1F [DFC, β-D-2′,3′-didehydro-2′,3′-dideoxy-5-fluorocytidine] the EC50 [2, 8] was 3100 nM, the EC90 [2, 8] was 8500 nM and the “FI50, Fold Increase for S68del in 50% effective concentration” value ([2]; S68del in pNL4-3 versus pNL4-3) was 14.7. For the same compound, the “FI90, Fold Increase for S68del in 90% effective concentration” value ([2]; S68del in pNL4-3 versus pNL4-3) was 3.7, the “resistance of S68delpNL4-3 (in words)” value ([2]; real-time PCR, human PBM cells) was “increased resistance” and the EC50 [3] was 210 nM. The EC90 [3] was 2300 nM, the “resistance of S68del RT (in words)” value ([4]; particle-derived RT, 3.2 mM ATP, FIG. 5) was “increased resistance” and the EC50 [1] was 1100 nM. The EC90 [1] was 3400 nM.
Nc1nc(=O)n(C2C=CC(COP(=O)(O)OP(=O)(O)OP(=O)(O)O)O2)cc1F (stereo not drawn) [DFC-TP] was tested, and the IC50 ([5]; Wild type RT) was 140 ± 20 nM, the Fold-incr ([5]; Wild type RT (reference)) was 1.0 and the Fold-incr [6] was 7.9. For the same compound, the IC50 [7] was 1100 ± 200 nM and the “fold increase in resistance” value ([4]; virally-derived S68del RT, relative to HIVLAI, enzymatic assay) was 5.6 fold.
Cc1cccc(C)c1OCC(=O)N[C@@H](Cc1ccccc1)[C@@H](O)C[C@H](Cc1ccccc1)NC(=O)[C@H](C(C)C)N1CCCNC1=O [Lopinavir] was tested, and the EC50 [1] was 6 nM, the EC90 [1] was 19 nM and the “HIVs68Δ-23 susceptibility (in words)” value [1] was “not significantly changed”.
In the case of O=C1Nc2ccc(Cl)cc2[C@@](C#CC2CC2)(C(F)(F)F)O1 [Sustiva, (S)-6-chloro-4-cyclopropylethynyl-4-trifluoromethyl-1,4-dihydro-2H-3,1-b-enzoxazin-2-one], the EC50 [1] is reported as 0.39 nM, the EC90 [1] is reported as 3.5 nM and the “HIVs68Δ-23 susceptibility (in words)” value [1] is reported as “not significantly changed”.
With CC(C)OC(=O)OCOP(=O)(CO[C@H](C)Cn1cnc2c(N)ncnc21)OCOC(=O)OC(C)C.O=C(O)/C=C/C(=O)O [TDF, 9-[(R)-2-[[bis[[(isopropoxycarbonyl)oxy]methoxy]phosphinyl]methoxy]propyl]adenine fumarate] the EC50 [1] was 430 nM and the EC90 [1] was 1600 nM.
